From patent publication US20250082766A1, “TREATMENT OF BRAIN TUMORS BY TARGETING THE CHOLESTEROL PATHWAY IN ASTROCYES” (Ramot at Tel-Aviv University Ltd., priority 2022, published 2025)

How the values were obtained:
[1] = tested on: GL261 and CT-2A glioma cells; assay: Cell viability assay (Annexin V/DAPI FACS) of glioma cells; format: cell-based, mouse; conditions: 24-OHC for 72 hours; GL261 and CT-2A glioma cell lines; FIGS. 5J-K
Experimental: FIGS. 5A-N illustrate that astrocyte-derived cholesterol supports glioma survival. (FIGS. 5A-D) Real-time changes in the ECAR (FIGS. 5A-B) and oxygen consumption rate (OCR) (FIGS. 5C-D) of GL261 glioma cells, cultured in media supplemented with full serum (FCS, fetal calf serum) or lipoprotein-deprived serum (LPDS, Lipoprotein-deficient serum) for 18 hours and measured using Seahorse. Oligo, oligomycin; FCCP, carbonyl cyanide4-(trifluoromethoxy) phenylhydrazone; R/A, rotenone plus antimycin A; 2-DG, 2-deoxy-d-glucose. Glycolysis, glycolytic capacity and glycolytic reserve were extracted from the ECAR reading, and basal respiration, adenosine triphosphate (ATP) production, Maximal respiration, and spare respiratory capacity were determined based on OCR. Data are representative of two independent experiments (n=6 technical replicates per experiment). (FIG. 5E) Percentage of cell death of GL261 and CT-2A glioma cells, or primary astrocytes, cultured in FCS or LPDS for 5 days; as determined by Annexin-V assay (n=5 independent experiments). […] Representative flow cytometry plots of Annexin-V/DAPI staining from each group are shown in FIG. 5F and quantification analyses of cholesterol rescue are in FIG. 5G (n=5 biologically independent experiments). (FIGS. 5H-K) Representative images and quantification of LDLR expression (Immunoblot, FIGS. 5H-I) and cell death via FACS analysis of Annexin V/DAPI staining (FIGS. 5J-K) in response to endogenous LXR agonists (24-OHC) or Mock (DMSO) treatment in GL261 and CT-2A cells (n=3 biologically independent experiments). […] (FIGS. 5L-M) Representative flow cytometry plots of murine GL261 and CT-2A glioma cells co-cultured for 5 days with primary mouse astrocytes are shown in FIG. 5L and quantification analyses in FIG. 5M (n=4 biologically independent experiments). (FIG. 5N) quantification analyses of human U87EGFRvIII (U87) glioma cells co-cultured with human primary astrocytes for 5 days (n=3 biologically independent experiments). […]

LDLR [2] = assay: LDLR expression by immunoblot in glioma cells treated with LXR agonist; format: cell-based, mouse; conditions: GL261 and CT-2A cells; 24-OHC vs Mock (DMSO); FIGS. 5H-I
Experimental: FIGS. 5A-N illustrate that astrocyte-derived cholesterol supports glioma survival. (FIGS. 5A-D) Real-time changes in the ECAR (FIGS. 5A-B) and oxygen consumption rate (OCR) (FIGS. 5C-D) of GL261 glioma cells, cultured in media supplemented with full serum (FCS, fetal calf serum) or lipoprotein-deprived serum (LPDS, Lipoprotein-deficient serum) for 18 hours and measured using Seahorse. Oligo, oligomycin; FCCP, carbonyl cyanide4-(trifluoromethoxy) phenylhydrazone; R/A, rotenone plus antimycin A; 2-DG, 2-deoxy-d-glucose. Glycolysis, glycolytic capacity and glycolytic reserve were extracted from the ECAR reading, and basal respiration, adenosine triphosphate (ATP) production, Maximal respiration, and spare respiratory capacity were determined based on OCR. […] (FIG. 5E) Percentage of cell death of GL261 and CT-2A glioma cells, or primary astrocytes, cultured in FCS or LPDS for 5 days; as determined by Annexin-V assay (n=5 independent experiments). […] Representative flow cytometry plots of Annexin-V/DAPI staining from each group are shown in FIG. 5F and quantification analyses of cholesterol rescue are in FIG. 5G (n=5 biologically independent experiments). […] (FIG. 5N) quantification analyses of human U87EGFRvIII (U87) glioma cells co-cultured with human primary astrocytes for 5 days (n=3 biologically independent experiments). […]

glioma [3] = conditions: OXPHOS-targeting drugs; cited from earlier work
[4] = tested on: tumours with EGFR or IDH1 mutations; conditions: patient-derived GBM xenograft mice; cited from earlier work
[5] = tested on: murine GL261 glioma cells co-cultured with astrocytes; assay: LPDS-induced glioma cell death in astrocyte-glioma co-cultures with cholesterol-lowering drugs, Annexin-V assay; format: cell-based, mouse; conditions: cholesterol-deprived (LPDS) astrocyte-GL261 co-cultures, FIGS. 15A-D, n=2
From the text: FIGS. 15A-D illustrate that cholesterol-lowering drugs inhibit astrocyte-mediated rescue of glioma cells from cholesterol deprivation. Analysis of LPDS-induced glioma cell death, co-cultured with astrocytes, in the presence of absence of cholesterol-lowering drugs, by Annexin-V assay. (FIGS. 15A-C) Representative flow cytometry plots of murine GL261 treated with statins (FIG. 15A) or ABCA1 inhibitors Probucol (FIG. 15B), and Glyburide (FIG. 15C), and this quantification analyses (FIG. 15D). n=2 biologically independent experiments.
Moreover, statins and probucol, or glyburide, target different nodes in the cholesterol efflux mechanism (synthesis and extracellular export). Therefore, the present inventor further tests whether the combinations of the two drug groups would have a synergistic effect on glioma viability.

GL261 glioma (GBM) = assay: Primary GBM model: GL261 intracranially implanted mice treated with Probucol; format: in vivo, mouse; conditions: summary statement on ABCA1 inhibitors; FIGS. 16A-E
Experimental: (FIG. 16A) Illustration of the experimental design for primary and recurrent GBM models. (FIGS. 16B-D) WT mice were intracranially (IC) implanted with GL261 cells. Tumor-bearing mice were treated daily, starting at day 10, with Probucol (30 mg/kg) or vehicle. (FIG. 16B) Tumor growth curve as determined by IVIS, (FIG. 16C) mice weight loss, and (FIG. 16D) Kaplan-Meier curves assess overall survival. p-value by Two-way ANOVA. Data represent Mean±SEM, 8 mice/group. (FIG. 16E) Illustration of the predicted effects of probucol or glyburide in the different models/disease stages.
For intracranial mouse glioma, mice were anesthetized, positioned in a Stereotaxic Alignment System, and injected with 1.5×10^4 GL261 or CT-2A cells in 2 μl of DMEM. Injections were made to the right frontal lobe, approximately 2.5 mm lateral and 0.1 mm caudal from bregma at a depth of 3 mm. In-vivo bioluminescence imaging, following XenoLight D-luciferin Potassium Salt administration (150 mg/kg) i.p. administration, was determined using IVIS Spectrum system (PerkinElmer). Ganciclovir (GCV, Cymevene, Roche #SAP-10051872; 25 mg/kg), Diphtheria-toxin (DT, Sigma-Aldrich, #D0564; 1100 ng/mice), or vehicle control (PBS) were administered daily following tumor establishment (day 10), as previously described (Mayo, L., et al. Nat Med (2014) 20: 1147-1156). CD8^+ T cell depletion was performed using an anti-CD8 monoclonal antibody ([…], Bioxcell) or an isotype control monoclonal antibody (2A3, Bioxcell), as previously described (Takenaka, M. C. et al. Control of tumor-associated macrophages and T cells in glioblastoma via AHR and CD39. Nat Neurosci 22, 729-740 (2019)). GBM-bearing mice were intraperitoneally injected (0.1 mg/mouse) with an anti-CD8 or an isotype control mAbs, 1 day before, and 7 days after, GCV administration. CD8 T-cell depletion was validated by FACS analysis using a Sony SH800 FACS instrument (Sony Biotechnology). Data analysis was performed using FlowJo v10 (TreeStar, USA). The following reagents were used for analysis: anti-CD45 (1:100; 30-F11, Biolegend, #103106), anti-CD3[…] (1:50; 145-2C11, Biolegend #100335), and anti-CD8a (1:100; 53-6.7, Biolegend, #100765).
To investigate this hypothesis, C57Bl/6 mice are implanted with GFP^+ luciferase-expressing glioma cells (GL261 or CT-2A), using two subtype models—primary or recurrent GBM/brain tumor resection (as illustrated in FIG. 16A), and are treated daily with probucol, glyburide, or vehicle control, with or without a potent statin (e.g., simvastatin as shown in FIG. 15A). The dosage of the different drugs is optimized based on FDA guidelines for conversions from human-accepted dosages (Table 5 below).
In the primary GBM model (pGBM)—10 days after tumor implantation, the mice are treated with cholesterol-lowering drugs (FIG. 16A). In the recurrent GBM model (rGBM), 12-14 days after inoculation of the mice with the tumor cells, the visible tumor(s) are surgically removed, based on GFP expression, under a stereoscope. The mice are then allowed to recover for a week and then are treated with cholesterol-lowering drugs (FIG. 16A). Of note, tumor formation or recurrence is monitored by bioluminescence (BLI) signals from the tumor cells on in-vivo imaging system (IVIS) spectrum and quantified with Living Image software. Mice are monitored for tumor growth, peritumoral brain edema formation, and mouse survival until the experimental endpoint (extreme lethargy or body weight reduction of greater than 20%), or are euthanized seven days after treatment with the cholesterol-lowering drugs to assess tumor burden, angiogenesis, BBB stability, and immunomodulatory activity in-situ. Tumor volume is evaluated in-vivo by determining tumor BLI, and by histopathology analysis postmortem. Peritumoral brain edema is evaluated in-vivo using IVISense™ Edema (Superhance™ 680) fluorescent probe. […]

[6] = target: cholesterol transporter ABCA1 (Homo sapiens, UniProt O95477); conditions: cited from earlier work
Sequence of cholesterol transporter ABCA1 (O95477 whole entry): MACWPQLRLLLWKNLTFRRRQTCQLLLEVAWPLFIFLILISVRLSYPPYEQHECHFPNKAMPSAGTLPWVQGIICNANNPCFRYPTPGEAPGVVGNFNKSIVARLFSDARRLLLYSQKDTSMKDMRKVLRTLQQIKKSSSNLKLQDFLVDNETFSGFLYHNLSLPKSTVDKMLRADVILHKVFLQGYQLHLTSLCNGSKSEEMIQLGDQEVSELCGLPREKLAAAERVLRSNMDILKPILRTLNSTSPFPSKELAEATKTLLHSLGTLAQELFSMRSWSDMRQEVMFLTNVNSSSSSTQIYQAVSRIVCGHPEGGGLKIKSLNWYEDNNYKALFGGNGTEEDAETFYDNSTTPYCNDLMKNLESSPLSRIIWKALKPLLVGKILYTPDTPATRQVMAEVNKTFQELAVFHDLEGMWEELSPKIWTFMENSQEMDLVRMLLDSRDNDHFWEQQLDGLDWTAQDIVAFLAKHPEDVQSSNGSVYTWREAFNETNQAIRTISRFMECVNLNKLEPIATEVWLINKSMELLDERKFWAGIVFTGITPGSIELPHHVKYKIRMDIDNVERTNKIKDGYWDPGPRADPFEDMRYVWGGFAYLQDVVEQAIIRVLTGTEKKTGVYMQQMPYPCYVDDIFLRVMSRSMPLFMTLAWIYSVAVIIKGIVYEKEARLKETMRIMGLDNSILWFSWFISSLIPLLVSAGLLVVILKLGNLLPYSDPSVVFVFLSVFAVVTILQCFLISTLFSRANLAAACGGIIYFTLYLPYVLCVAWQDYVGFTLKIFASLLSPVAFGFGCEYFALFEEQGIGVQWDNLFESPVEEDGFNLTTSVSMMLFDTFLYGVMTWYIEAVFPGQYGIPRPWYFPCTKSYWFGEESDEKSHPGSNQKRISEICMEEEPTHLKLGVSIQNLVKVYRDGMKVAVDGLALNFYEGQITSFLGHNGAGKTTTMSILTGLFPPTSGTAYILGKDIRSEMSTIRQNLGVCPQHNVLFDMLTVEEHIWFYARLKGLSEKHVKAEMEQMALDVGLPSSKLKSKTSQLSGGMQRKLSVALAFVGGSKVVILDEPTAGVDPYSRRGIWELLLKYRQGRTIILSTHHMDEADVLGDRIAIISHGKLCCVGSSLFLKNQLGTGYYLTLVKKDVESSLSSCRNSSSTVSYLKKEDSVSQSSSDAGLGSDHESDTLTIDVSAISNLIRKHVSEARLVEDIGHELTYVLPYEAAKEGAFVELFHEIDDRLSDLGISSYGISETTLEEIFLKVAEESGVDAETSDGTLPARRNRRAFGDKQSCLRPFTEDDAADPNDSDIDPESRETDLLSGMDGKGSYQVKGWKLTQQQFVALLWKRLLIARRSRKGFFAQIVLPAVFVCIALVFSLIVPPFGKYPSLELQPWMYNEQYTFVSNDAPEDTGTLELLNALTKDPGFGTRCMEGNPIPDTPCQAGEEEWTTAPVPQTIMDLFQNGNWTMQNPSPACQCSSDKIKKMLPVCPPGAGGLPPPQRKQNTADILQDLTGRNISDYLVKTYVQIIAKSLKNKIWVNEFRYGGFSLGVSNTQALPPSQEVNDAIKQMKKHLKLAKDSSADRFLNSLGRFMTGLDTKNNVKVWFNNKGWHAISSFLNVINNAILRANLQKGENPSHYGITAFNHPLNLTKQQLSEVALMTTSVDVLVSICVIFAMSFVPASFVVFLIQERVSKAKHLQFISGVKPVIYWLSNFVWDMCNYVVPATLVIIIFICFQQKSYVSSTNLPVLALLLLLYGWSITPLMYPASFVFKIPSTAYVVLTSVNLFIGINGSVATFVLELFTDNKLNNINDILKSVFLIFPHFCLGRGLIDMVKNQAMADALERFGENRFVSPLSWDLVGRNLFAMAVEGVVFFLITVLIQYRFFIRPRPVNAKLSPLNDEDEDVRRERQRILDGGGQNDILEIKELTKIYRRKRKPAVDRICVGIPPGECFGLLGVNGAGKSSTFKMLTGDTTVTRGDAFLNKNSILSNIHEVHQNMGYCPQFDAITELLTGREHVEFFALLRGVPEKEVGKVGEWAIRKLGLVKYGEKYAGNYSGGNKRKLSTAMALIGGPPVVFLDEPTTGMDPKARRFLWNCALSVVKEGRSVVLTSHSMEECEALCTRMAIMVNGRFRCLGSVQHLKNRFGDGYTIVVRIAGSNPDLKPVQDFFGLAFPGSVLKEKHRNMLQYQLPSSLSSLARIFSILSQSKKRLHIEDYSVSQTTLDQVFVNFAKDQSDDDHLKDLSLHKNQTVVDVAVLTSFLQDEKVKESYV

glioma [7] = conditions: experimental glioma mouse models; cited from earlier work
LDLR [8] = assay: LDLR levels (immunoblot) in GL261 cells treated with conditioned media of PCSK9-transduced astrocytes; format: cell-based, mouse; conditions: astrocyte-conditioned media (wild type PCSK9-encoding vs empty lentivirus), 24 hours; FIG. 21B
Experimental: FIGS. 21A-D illustrate that PCSK9 overexpression in the cancer microenvironment halts glioma progression. (FIG. 21A) Box plot analysis of TCGA gene expression for PCSK9 in normal (Norm; n=207), GBM patients (n=163), or low-grade glioma (LGG, n=518). n represents the number of patients per group. (FIG. 21B) Astrocytes were transduced with wild type PCSK9-encoding or empty lentivirus, and 24 hours later, the media was collected and transferred to glioma cells. Representative immunoblot analyses comparing LDLR and ACTIN levels in GL261 glioma cells treated with the astrocyte-conditioned media for 24 hours. (n=2 biologically independent experiments). […] PCSK9-encoding or empty lentiviruses were injected into the TME of GL261-bearing mice 9 and 15 days after tumor implantation. (FIG. 21C) Analysis of tumor size, based on tumor bioluminescence. (FIG. 21D) Kaplan-Meier curves assessing overall survival of these groups. Data are representative of two independent experiments with n=6 mice/group. Data are shown as mean±s.e.m. P values were determined by two-sided Student's t-tests (FIG. 21A), two-way ANOVA (FIG. 21C), or Log rank (Mantel-Cox) test (FIG. 21D). *P<0.05, **P<0.01, ***P<0.001.
Cells were lysed in RIPA buffer supplemented with protease inhibitors (Cell Signaling). […] Quantification was done using Image Studio Lite software version 5.2 (LI-COR Biosciences).

Molecule: CC(C)[C@@H](O)CC[C@@H](C)[C@H]1CC[C@H]2[C@@H]3CC=C4C[C@@H](O)CC[C@]4(C)[C@H]3CC[C@]12C [24-OHC, 24(S)-hydroxycholesterol]
- glioma cell death [1]: dramatic cell death
- LDLR expression (degradation) (LDLR [2]): dose-dependent LDLR degradation

Molecule: CCc1n(CC(=O)O[C@@H]2C[C@H](C)CC[C@H]2C(C)C)c2ccccc2[n+]1C.[Cl-] [Gboxin]
- glioma proliferation and cell death (glioma [3]): inhibit glioma proliferation and induce cell death
- growth of tumours [4]: suppresses the growth of tumours

Molecule: COc1ccc(Cl)cc1C(=O)NCCc1ccc(S(=O)(=O)NC(=O)NC2CCCCC2)cc1 [Glyburide]
- attenuation of the astrocyte-dependent rescue of glioma cells from cholesterol deprivation (glioma cell death), relative efficiency [5]: the most potent
- survival of subjects having GBM in-vivo (GL261 glioma (GBM)): prolonging survival
- tumor size of subjects having GBM in-vivo (GL261 glioma (GBM)): decreasing tumor size
- weight loss of subjects having GBM in-vivo (GL261 glioma (GBM)): preventing weight loss
- ABCA1 inhibitor potency [6]: potent

Molecule: FC(F)(F)c1ccc(CNc2ccc(Cc3c[nH]c4ncc(Cl)cc34)cn2)cn1 [PLX3397]
- glioma expansion (glioma [7]): reduces glioma expansion

Molecule: PCSK9: wild type PCSK9 secreted into astrocyte-conditioned medium by lentivirus-transduced astrocytes
- levels of LDLR in GL261 glioma cells (LDLR [8]): decreased levels of LDLR
